Our source for the melting point values is a melting point compilation (Tetko et al.; mined from patent text by program, amines drawn as free bases though some values may be those of a salt).

As usually defined, the melting point is the temperature, or range, at which the solid turns liquid.

In turn, `O=C(O)CCNC(=O)NCCCCC1CCSS1` (stereo unspecified) registered a melting point of 108 to 110 °C.

`CN(C)Cc1c(O)ccc2cc(Br)ccc12` came in with a melting point of 95 to 96 °C.

As for `CCOC(=O)c1c2n(c3c(F)c(N4CCC(N(C)C)C4)c(F)cc3c1=O)C(C)S2` (stereo unspecified), the melting point fell in the range of 165 to 168 °C.

`Clc1ccc2c(c1)CCC(c1ccccc1)O2` (stereo unspecified) yielded a melting point of 71 to 72 °C.

Consider `C=CC[C@@H]1C[C@@H](COc2ccc(-c3ccc(C#N)cc3)cc2)N(Cc2ccc(OC)cc2)C1=O`, for which the melting point lay in the range of 120 to 122 °C.

In the case of `COc1cccc(/C=C/c2nc3c(c(=O)n(C)c(=O)n3C)n2C)c1OC`, the melting point was 234 to 237 °C.

Compound `CCOC(=O)C=Cc1ccc(NC(=O)CC)cc1` came in with a melting point of 138 °C.

`Cn1nc(N)nc1NCCCO` gave a melting point of 139 to 140 °C.

With `CNS(=O)(=O)c1ccccc1Nc1nc(Nc2ccc3c(c2)CCN(CCOC)CC3)ncc1Cl`, the melting point lay in the range of 102 to 108 °C.

The compound `CC(C#N)(c1ccc(F)cc1)c1ccc(N2NCC(=O)NC2=O)cc1Cl` (stereo unspecified) came in with a melting point of 122 °C.

`NC(=O)Cc1ccc(Oc2ccccc2)cc1` registered a melting point of 161 to 163 °C.

`O=C(NC/C=C/c1ccccc1)c1ccccc1F` showed a melting point of 68 °C.

As for `COC1C(O)C(CO)OC1n1ccc(=O)[nH]c1=O` (stereo unspecified), the melting point lay within 158 to 159 °C.

As to `NC(=O)c1ccc(CCCNCC(O)c2ccccc2)s1` (stereo unspecified), the melting point fell in the range of 94 to 96 °C.

In turn, `CCN(CC)N(C(C)=O)c1nc2cc3nc(N(C(C)=O)N(CC)CC)sc3cc2s1` registered a melting point of 224 to 225 °C.

`COC(=O)/C=C(\c1ccccc1)c1ccc2c(c1)C(C)(C)OC(=O)N2` registered a melting point of 181 to 182 °C.

The compound `O=c1ccn2c(c1O)C(c1ccc(Br)cc1)OCC2` (stereo unspecified) had a melting point of 200 to 212 °C.

In the case of `C#CCN(C)c1c(-c2c(F)cc(F)cc2F)c(OC)nc2ncnn12`, the melting point turned out to be 119 °C.

For `CC(C)(C)OC(=O)N1CCC(COc2ccc(C=O)cc2)CC1`, the melting point lay in the range of 116 to 117 °C.

Regarding `CCCCCCCCOc1ccc(C(=O)OC(C)c2cc3c(s2)-n2c(C)nnc2CN=C3c2ccccc2Cl)cc1` (stereo unspecified), the melting point lay in the range of 56 to 61 °C.

`Cn1c(=O)c(-c2ccc(Cl)cc2Cl)cc2c3cc(-c4cocn4)ccc3n(C)c21` displayed a melting point of 221 to 222 °C.

Turning to `CC(=O)N1CC(C)c2c1cc(C)c(O)c2C` (stereo unspecified), the melting point lay within 204 to 205 °C.

The compound `Cc1cc(-c2oncc2CCC(=O)O)ccc1Cl` showed a melting point of 158 to 159 °C.

`CC(Oc1ccc(Oc2cnc3cc(Cl)ccc3n2)cc1)C(=O)Nc1ccc(OC(F)(F)F)cc1` (stereo unspecified) returned a melting point of 156 to 158 °C.

`CC(C)(C)NC(=O)[C@@H]1C[C@H](Cl)CN1C(=O)[C@@H](O)[C@H](Cc1ccccc1)NC(=O)[C@H](CCS(N)(=O)=O)NC(=O)OCc1ccccc1` returned a melting point of 115 to 122 °C.

Compound `Clc1cccnc1-c1ccc2[nH]nc(Nc3ncc(CN4CCOCC4)s3)c2c1` had a melting point of 217 °C.

The compound `COc1ccccc1C(=O)Nc1ccc(N2CCOCC2)cc1C(C)=O` showed a melting point of 158 to 160 °C.

For `CN(C)c1cccc(C(=O)NCCc2c3n(c4ccccc24)C(=O)CCC3)c1`, the melting point was 136 °C.

With `CC(=O)ON=c1c2nccc3cccc(c32)n2cccc12`, the melting point was in the range of 177 to 179 °C.

In the case of `Fc1cccc(Nc2nc(Cl)nc(Cl)n2)c1`, the melting point is 143 °C.

For the compound `CCCCCc1c(C(C)C)nc(C(C)C)c(CO)c1-c1ccc(OC)cc1`, the melting point was 47 to 49 °C.

Consider `COc1ccc(NC(C)=O)cc1C(=O)O`, for which the melting point lay within 208 to 210 °C.

For `CCOc1nn(-c2ccc(C(F)(F)F)cn2)cc1CCOc1cccc(CC(=O)O)c1`, the melting point lay in the range of 128 to 130 °C.

In turn, `COC(=O)CCCc1cc2nc(C(F)(F)F)ccc2n1S(=O)(=O)c1ccccc1Cl` registered a melting point of 88 °C.

Compound `COc1cc(CC#N)c(OC)c(C)c1C` came in with a melting point of 98 to 99 °C.

The compound `O=S(=O)(Nc1ccc(Oc2ccc3cccnc3c2)cc1)c1ccc(F)cc1` returned a melting point of 175 to 178 °C.

`O=Cc1c(OCc2ccccc2)cccc1C1OCCCO1` came in with a melting point of 85 to 87 °C.

In turn, `CCN(CC)c1nc(C)nc2scnc12` gave a melting point of 41.6 to 43 °C.

Regarding `CC(C)(C)C(=O)OC1CCC2(C)C(=CC(O)C3C2CCC2(C)C(=O)CC(OC(=O)C(C)(C)C)C32)C1` (stereo unspecified), the melting point was in the range of 195 to 197 °C.

Compound `CCc1nc2c(N)nc3ccccc3c2n1CCCCNC(=O)C1CCCC1` came in with a melting point of 179 to 180 °C.

As to `C=Cn1cc(C(=O)O)c(=O)c2cc(F)c(N3CCN(C)CC3)cc21`, the melting point amounted to 242 °C.

Compound `CCOC(=O)CCc1cn(Cc2cccnc2OCc2csc(-c3ccccc3)n2)nc1-c1ccccc1` came in with a melting point of 88 to 89 °C.

Compound `CNC(=O)N(c1ccccc1)c1ccccc1` gave a melting point of 170 °C.

As to `COc1ccc(CN2CCc3cc(O)ccc3C2)cc1OC`, the melting point was in the range of 119 to 122 °C.

With `O=[N+]([O-])c1ccc(C(O)c2ccccn2)cc1` (stereo unspecified), the melting point is 114 to 115 °C.

Compound `Cc1c(C(=O)Nc2ccc(SCCCO)c(C#N)c2)cnn1-c1ccc(Cl)cc1` registered a melting point of 165 °C.

As for `CP1(=O)c2ccccc2CN1c1ccc(Cl)c(Cl)c1` (stereo unspecified), the melting point was in the range of 152 to 154 °C.

The compound `COc1ccc(Nc2nc(C)ncc2S(=O)(=O)c2ccc(OCc3ccccc3)cc2)c(C)c1` registered a melting point of 110 to 114 °C.

Regarding `Cc1cc(Cl)cc2c(=O)oc(-c3cc(Cl)nn3-c3ncccc3Cl)nc12`, the melting point is 199 to 201 °C.

Take `COC(C)=CC(=O)Nc1cccc(N)c1`: the melting point was 132 °C.

`CNC(=O)NC(C)C(C)CC(=O)NS(=O)(=O)c1ccc(C)cc1` (stereo unspecified) came in with a melting point of 120 to 125 °C.

As for `CC(C)(C)OC(=O)N1Cc2c(Br)sc(-c3ccccc3)c2C1`, the melting point was in the range of 139 to 140 °C.

The compound `Cc1c(Cl)ccc(C(=O)c2cnn(C)c2O)c1Cl` displayed a melting point of 131 to 135 °C.

Compound `C#Cc1c(-n2ccnc2)nc(C)nc1C(F)(F)F` returned a melting point of 121 to 122 °C.

Regarding `CCCCCC1=CN(N)C2=NC(O)N(CCCNC(C)=O)C2=C1` (stereo unspecified), the melting point lay in the range of 189 to 191 °C.

`Cc1cn(C(C)(C)C(=O)NCc2ccccc2)nc1-c1ccccc1` gave a melting point of 87 to 90 °C.

In the case of `CCc1cc2c(s1)SCc1cc(=O)n(-c3ccc(Cl)cc3)nc1-2`, the melting point is 161 to 163 °C.

Compound `CCCn1c(=O)c2c(NC)n[nH]c2n(Cc2cccs2)c1=O` yielded a melting point above 300 °C.

With `Cc1cc(=O)[nH]nc1-c1ccc(-c2n[nH]c(=O)cc2C)cc1`, the melting point was above 250 °C.

For the compound `CC1CC2C3CC(F)C4=CC(=O)C=CC4(C)C34OC4CC2(C)C1(O)C(=O)CO` (stereo unspecified), the melting point was 241 to 242 °C.

Turning to `CCOC(=O)C(C)(C(=O)OCC)C1CCCC(=O)C1` (stereo unspecified), the melting point was in the range of 129 to 130 °C.

As for `CCNc1nc(NS(=O)(=O)c2ccc(N)cc2)cc(N2CCC2)n1`, the melting point was 292 to 293 °C.

In turn, `COCCc1nc2c(N)nc3ccccc3c2n1CCOCCN(C)C(=O)C1CCCCC1` came in with a melting point of 52 to 57 °C.

For `O=C(O)c1cccc(N2CCc3ccccc32)c1`, the melting point lay within 168 to 170 °C.

For `O=C(O)[C@H]1C[C@H](CCc2ccccc2)Oc2ccc(F)cc21` (relative stereo), the melting point was 105 to 108 °C.

`c1ccc2sc(C3CCNCC3)cc2c1` registered a melting point of 82 to 84 °C.

`CN(CCCc1ccc(F)cc1)[C@H]1CC[C@H](c2ccc3[nH]c(=O)oc3c2)CC1`: the melting point was 62 to 65 °C.

For `Cc1nc(Cn2cnc3c2c(=O)n(C)c(=O)n3C)no1`, the melting point came out at 135 °C.

The compound `Cc1c(C)c2c(c(C)c1O)C(C(=O)O)C(C)(C)O2` (stereo unspecified) registered a melting point of 161 to 164 °C.

As for `CCCc1c(OCC(O)COc2ccc3c(=O)cc(C(=O)O)oc3c2CCC)ccc(C(C)=O)c1O` (stereo unspecified), the melting point is 199 to 201 °C.

In turn, `O=c1n(CCC#Cc2cccc(CF)n2)nc2ccccn12` displayed a melting point of 106 to 107 °C.

`O=C(/C=C/c1c[nH]cn1)Oc1ccc([N+](=O)[O-])cc1` showed a melting point of 220 to 222 °C.

`Oc1cccc(-c2nn(C3CCCC3)c3c(Cl)cccc23)c1F` came in with a melting point of 150 to 151 °C.

Turning to `CC1(C)CC(=NN)c2ccccc21`, the melting point is 194 to 197 °C.

For the compound `O=C(CCc1ccccc1)N[C@H](Cc1ccc(C(F)(F)F)cc1)[C@@H](O)c1ccc(F)cc1F` (racemic), the melting point lay within 126 to 127 °C.

On to `Cc1cc(-c2csc(NC(=N)N)n2)c[nH]1`, for which the melting point was 235 to 237 °C.

Consider `CCCCCCC(=N)NC(=S)Nc1ccc(Cl)cc1`, for which the melting point lay in the range of 112 to 113 °C.

`Cc1cc(C(C)(C)C)c(O[Si](C)(C)N=C=S)c(C(C)(C)C)c1`: the melting point lay in the range of 83 to 84 °C.

Regarding `Cc1ccccc1-c1c(NC(=O)Nc2ccc(F)cc2F)c(=O)oc2ccc(C)c(C)c12`, the melting point was in the range of 232 to 234 °C.

`O=C(O)CCn1cc(Br)c2c3c(c(-c4ccccc4Cl)cc21)C(=O)NC3=O` showed a melting point of 182 to 186 °C.

Consider `CCCc1nc(C)n2[nH]c(=O)nc2c1Br`, for which the melting point came out at 221 °C.

The compound `Cc1cc(C2=NN=C(C(N)=O)Cc3cc4c(cc32)OCO4)ccc1[N+](=O)[O-]` displayed a melting point of 266 to 268 °C.

`Nc1c([N+](=O)[O-])cnn1-c1ncc(Cl)cc1Cl` displayed a melting point of 194 °C.

With `CCOC(=O)c1cn(C2COC2)c2c(F)c(F)c(F)c(F)c2c1=O`, the melting point fell in the range of 110 to 113 °C.

`O=c1[nH]c(=O)n(Cc2cccc(OCc3noc(-c4ccc(F)cc4)n3)c2)o1` came in with a melting point of 147 to 148 °C.

Regarding `CN(C)CCCNc1nc2cc(Cl)c(Cl)cc2nc1-c1ccccn1`, the melting point lay in the range of 59 to 61 °C.

`CCC(=O)NCc1ccc(CN2CCN(c3ccccc3)CC2)cc1` had a melting point of 140 to 141 °C.

Compound `CC(=O)OCCn1nc(-c2cc(C(C)(C)C)c(O)c(C(C)(C)C)c2)c2ccc(C(C)C)nc21` returned a melting point of 121 to 122 °C.

The compound `CC1(C)[C@@H](C(=O)Nc2cc(C(F)(F)F)n[nH]2)[C@@H]1c1ccccc1` (relative stereo) returned a melting point of 68 to 71 °C.

`Nc1sc2c(c1C(=O)c1ccsc1)CCN(Cc1ccccc1)C2`: the melting point lay within 131 to 133 °C.

The compound `COc1ccc(C2(C#Cc3cccc(NC(C)=O)c3)CCCC(=O)C2)cc1OC1CCCC1` (stereo unspecified) yielded a melting point of 58 to 60 °C.
